Experiments:
[1] = molecular target: ALK tyrosine kinase receptor (Homo sapiens) (UniProt Q9UM73); settings: Compound concentration 1000.0 nM
[2] = molecular target: 5'-AMP-activated protein kinase catalytic subunit alpha-1 (Homo sapiens) (UniProt Q13131); settings: Compound concentration 1000.0 nM
[3] = molecular target: Bone morphogenetic protein receptor type-1A (Homo sapiens) (UniProt P36894); settings: Compound concentration 1000.0 nM
[4] = molecular target: Calcium/calmodulin-dependent protein kinase kinase 2 (Homo sapiens) (UniProt Q96RR4); settings: Compound concentration 1000.0 nM
[5] = molecular target: Cyclin-dependent kinase-like 1 (Homo sapiens) (UniProt Q00532); settings: Compound concentration 1000.0 nM
Chain of Cyclin-dependent kinase-like 1 (Homo sapiens) (Q00532 whole entry, canonical isoform): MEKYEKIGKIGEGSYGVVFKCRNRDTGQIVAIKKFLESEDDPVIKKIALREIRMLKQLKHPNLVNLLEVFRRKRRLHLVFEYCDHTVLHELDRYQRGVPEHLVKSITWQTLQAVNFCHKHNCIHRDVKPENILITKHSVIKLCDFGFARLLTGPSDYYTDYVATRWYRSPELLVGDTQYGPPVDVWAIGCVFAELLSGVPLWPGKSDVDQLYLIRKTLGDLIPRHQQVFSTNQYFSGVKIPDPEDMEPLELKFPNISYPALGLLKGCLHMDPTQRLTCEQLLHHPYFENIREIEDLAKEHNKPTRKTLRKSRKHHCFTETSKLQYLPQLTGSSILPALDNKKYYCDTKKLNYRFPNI

[6] = molecular target: Casein kinase I isoform delta (Homo sapiens) (UniProt P48730); settings: Compound concentration 1000.0 nM
Chain of Casein kinase I isoform delta (Homo sapiens) (P48730 whole entry, looked up, canonical isoform): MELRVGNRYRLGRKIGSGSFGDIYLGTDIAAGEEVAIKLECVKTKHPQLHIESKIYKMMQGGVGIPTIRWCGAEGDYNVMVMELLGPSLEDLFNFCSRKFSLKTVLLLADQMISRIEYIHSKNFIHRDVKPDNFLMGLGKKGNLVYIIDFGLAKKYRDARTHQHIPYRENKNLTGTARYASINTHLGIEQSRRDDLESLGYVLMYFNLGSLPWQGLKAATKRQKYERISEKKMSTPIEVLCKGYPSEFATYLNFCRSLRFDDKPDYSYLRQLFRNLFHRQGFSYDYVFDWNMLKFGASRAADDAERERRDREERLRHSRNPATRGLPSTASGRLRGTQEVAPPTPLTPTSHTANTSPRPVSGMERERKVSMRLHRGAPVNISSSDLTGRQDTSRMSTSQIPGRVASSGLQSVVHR

[7] = molecular target: Serine/threonine-protein kinase 17A (Homo sapiens) (UniProt Q9UEE5); settings: Compound concentration 1000.0 nM
[8] = tested on: Epidermal growth factor receptor (Homo sapiens), P00533 [UNDEFINED MUTATION]; settings: Compound concentration 1000.0 nM
[9] = tested on: Epidermal growth factor receptor (Homo sapiens), P00533 [L858R]; settings: Compound concentration 1000.0 nM
[10] = molecular target: Tyrosine-protein kinase Fgr (Homo sapiens) (UniProt P09769); settings: Compound concentration 1000.0 nM
[11] = tested on: Receptor-type tyrosine-protein kinase FLT3 (Homo sapiens), P36888 [UNDEFINED MUTATION]; settings: Compound concentration 1000.0 nM
[12] = tested on: Receptor-type tyrosine-protein kinase FLT3 (Homo sapiens), P36888 [R834Q]; settings: Compound concentration 1000.0 nM
[13] = molecular target: Vascular endothelial growth factor receptor 3 (Homo sapiens) (UniProt P35916); settings: Compound concentration 1000.0 nM
[14] = molecular target: Insulin receptor-related protein (Homo sapiens) (UniProt P14616); settings: Compound concentration 1000.0 nM
[15] = molecular target: Tyrosine-protein kinase JAK1 (Homo sapiens) (UniProt P23458); settings: Compound concentration 1000.0 nM
Chain of Tyrosine-protein kinase JAK1 (Homo sapiens) (P23458 whole entry): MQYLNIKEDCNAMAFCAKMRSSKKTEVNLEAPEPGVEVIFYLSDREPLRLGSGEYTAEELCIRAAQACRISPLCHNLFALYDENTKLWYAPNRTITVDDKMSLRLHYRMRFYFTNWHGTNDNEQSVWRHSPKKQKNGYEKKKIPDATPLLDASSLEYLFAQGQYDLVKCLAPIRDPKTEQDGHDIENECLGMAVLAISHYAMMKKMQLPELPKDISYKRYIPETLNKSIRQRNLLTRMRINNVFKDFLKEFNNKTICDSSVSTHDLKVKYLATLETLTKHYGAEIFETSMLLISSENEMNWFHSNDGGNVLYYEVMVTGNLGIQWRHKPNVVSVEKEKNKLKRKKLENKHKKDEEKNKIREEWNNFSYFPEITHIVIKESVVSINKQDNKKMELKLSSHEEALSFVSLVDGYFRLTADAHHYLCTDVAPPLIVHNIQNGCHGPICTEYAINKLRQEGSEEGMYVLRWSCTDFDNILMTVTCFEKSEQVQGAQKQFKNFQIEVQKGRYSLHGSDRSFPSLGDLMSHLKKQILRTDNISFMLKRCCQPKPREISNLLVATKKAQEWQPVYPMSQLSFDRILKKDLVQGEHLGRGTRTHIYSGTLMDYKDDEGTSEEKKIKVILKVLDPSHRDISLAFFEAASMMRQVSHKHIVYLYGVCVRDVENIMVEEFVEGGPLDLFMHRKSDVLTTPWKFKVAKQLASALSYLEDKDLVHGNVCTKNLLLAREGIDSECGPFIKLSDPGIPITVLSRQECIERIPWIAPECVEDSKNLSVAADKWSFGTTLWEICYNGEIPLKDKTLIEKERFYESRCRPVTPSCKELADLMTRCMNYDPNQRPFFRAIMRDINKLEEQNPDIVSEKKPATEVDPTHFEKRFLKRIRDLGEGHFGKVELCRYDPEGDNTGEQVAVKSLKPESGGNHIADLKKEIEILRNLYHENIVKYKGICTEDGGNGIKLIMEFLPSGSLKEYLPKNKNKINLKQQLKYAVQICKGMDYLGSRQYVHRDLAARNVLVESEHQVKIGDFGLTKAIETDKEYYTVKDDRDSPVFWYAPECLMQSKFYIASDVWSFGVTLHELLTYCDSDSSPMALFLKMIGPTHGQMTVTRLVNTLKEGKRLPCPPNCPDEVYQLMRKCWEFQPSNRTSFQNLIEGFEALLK

[16] = molecular target: Tyrosine-protein kinase JAK1 (Homo sapiens) (UniProt P23458); settings: Compound concentration 1000.0 nM; remark: listed apart in the source
[17] = molecular target: Tyrosine-protein kinase JAK3 (Homo sapiens) (UniProt P52333); settings: Compound concentration 1000.0 nM
[18] = molecular target: Mitogen-activated protein kinase kinase kinase 1 (Homo sapiens) (UniProt Q13233); settings: Compound concentration 1000.0 nM
[19] = molecular target: Mitogen-activated protein kinase kinase kinase 4 (Homo sapiens) (UniProt Q9Y6R4); settings: Compound concentration 1000.0 nM
Chain of Mitogen-activated protein kinase kinase kinase 4 (Homo sapiens) (Q9Y6R4 whole entry): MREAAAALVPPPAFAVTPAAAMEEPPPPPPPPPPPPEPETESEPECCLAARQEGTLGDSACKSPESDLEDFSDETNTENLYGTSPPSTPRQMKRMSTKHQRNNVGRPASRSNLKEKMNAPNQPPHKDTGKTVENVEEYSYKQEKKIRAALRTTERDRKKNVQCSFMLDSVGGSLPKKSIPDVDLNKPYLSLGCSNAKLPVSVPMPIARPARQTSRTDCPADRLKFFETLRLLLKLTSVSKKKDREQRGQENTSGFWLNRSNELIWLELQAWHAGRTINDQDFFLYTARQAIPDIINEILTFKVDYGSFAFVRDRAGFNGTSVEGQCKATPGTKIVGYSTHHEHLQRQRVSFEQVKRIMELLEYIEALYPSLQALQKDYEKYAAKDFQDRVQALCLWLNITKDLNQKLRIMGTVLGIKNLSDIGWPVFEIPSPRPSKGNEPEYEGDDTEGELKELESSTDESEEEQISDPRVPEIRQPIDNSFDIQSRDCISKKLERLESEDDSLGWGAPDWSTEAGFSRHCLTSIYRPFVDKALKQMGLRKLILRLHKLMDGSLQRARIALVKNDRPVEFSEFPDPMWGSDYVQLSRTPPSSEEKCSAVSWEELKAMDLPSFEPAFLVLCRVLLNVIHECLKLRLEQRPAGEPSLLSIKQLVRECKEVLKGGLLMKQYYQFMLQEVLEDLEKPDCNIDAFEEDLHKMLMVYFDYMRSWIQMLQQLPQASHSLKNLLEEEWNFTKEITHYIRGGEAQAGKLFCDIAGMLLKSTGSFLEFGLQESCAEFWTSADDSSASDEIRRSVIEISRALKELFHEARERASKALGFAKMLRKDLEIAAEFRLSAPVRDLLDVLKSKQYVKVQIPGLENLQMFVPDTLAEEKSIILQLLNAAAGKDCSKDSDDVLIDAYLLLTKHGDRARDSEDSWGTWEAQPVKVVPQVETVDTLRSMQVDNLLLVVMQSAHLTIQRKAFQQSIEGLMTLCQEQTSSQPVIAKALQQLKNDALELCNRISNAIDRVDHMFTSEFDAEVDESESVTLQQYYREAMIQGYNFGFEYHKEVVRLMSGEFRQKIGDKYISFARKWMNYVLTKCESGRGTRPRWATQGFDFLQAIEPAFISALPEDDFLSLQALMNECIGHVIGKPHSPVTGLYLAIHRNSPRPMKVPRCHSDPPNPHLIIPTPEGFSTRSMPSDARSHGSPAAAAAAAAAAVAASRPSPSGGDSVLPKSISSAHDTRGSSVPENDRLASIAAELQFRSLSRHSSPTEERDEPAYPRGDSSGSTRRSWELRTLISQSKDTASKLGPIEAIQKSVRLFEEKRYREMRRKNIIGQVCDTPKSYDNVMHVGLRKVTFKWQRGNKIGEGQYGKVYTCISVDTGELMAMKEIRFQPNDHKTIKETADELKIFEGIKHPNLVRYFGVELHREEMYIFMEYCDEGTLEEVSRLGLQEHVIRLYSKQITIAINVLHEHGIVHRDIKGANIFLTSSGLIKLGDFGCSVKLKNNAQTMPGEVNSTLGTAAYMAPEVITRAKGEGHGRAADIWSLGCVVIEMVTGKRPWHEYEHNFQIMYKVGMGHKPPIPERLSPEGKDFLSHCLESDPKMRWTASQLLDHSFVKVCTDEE

[20] = molecular target: Serine/threonine-protein kinase PAK 3 (Homo sapiens) (UniProt O75914); settings: Compound concentration 1000.0 nM
Chain of Serine/threonine-protein kinase PAK 3 (Homo sapiens) (O75914 whole entry, looked up): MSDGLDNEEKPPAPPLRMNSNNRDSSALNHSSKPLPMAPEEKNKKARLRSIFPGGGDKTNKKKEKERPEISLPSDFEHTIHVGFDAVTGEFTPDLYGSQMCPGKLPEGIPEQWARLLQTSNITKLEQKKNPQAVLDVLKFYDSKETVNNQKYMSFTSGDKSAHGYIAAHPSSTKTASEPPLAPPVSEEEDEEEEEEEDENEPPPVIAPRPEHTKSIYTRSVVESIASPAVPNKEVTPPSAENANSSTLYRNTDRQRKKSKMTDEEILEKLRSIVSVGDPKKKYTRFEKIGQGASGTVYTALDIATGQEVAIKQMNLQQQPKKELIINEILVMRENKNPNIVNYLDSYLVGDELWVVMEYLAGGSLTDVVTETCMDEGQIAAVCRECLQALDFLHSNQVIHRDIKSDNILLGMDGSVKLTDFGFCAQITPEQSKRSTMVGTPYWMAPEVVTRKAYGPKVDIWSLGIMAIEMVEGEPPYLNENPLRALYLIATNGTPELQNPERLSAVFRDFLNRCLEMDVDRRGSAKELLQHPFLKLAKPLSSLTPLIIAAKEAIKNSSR

[21] = molecular target: Calcium-dependent protein kinase 1 (Plasmodium falciparum) (UniProt P62344); settings: Compound concentration 1000.0 nM
Chain of Calcium-dependent protein kinase 1 (Plasmodium falciparum) (P62344 2-524 limits assumed): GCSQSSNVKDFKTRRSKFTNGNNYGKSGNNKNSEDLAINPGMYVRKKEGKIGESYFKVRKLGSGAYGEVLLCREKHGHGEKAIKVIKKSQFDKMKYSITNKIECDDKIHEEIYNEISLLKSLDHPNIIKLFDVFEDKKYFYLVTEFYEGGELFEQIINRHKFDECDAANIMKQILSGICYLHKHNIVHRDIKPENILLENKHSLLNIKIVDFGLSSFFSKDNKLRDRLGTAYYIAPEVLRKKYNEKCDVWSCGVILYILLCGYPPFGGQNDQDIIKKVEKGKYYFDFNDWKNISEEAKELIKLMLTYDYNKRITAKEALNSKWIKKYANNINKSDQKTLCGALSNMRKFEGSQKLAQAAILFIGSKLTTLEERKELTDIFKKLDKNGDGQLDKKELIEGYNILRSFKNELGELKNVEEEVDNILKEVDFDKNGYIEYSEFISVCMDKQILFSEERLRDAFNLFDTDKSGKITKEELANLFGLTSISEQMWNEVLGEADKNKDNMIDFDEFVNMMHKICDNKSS

[22] = molecular target: Phosphatidylinositol 5-phosphate 4-kinase type-2 gamma (Homo sapiens) (UniProt Q8TBX8); settings: Compound concentration 1000.0 nM
Chain of Phosphatidylinositol 5-phosphate 4-kinase type-2 gamma (Homo sapiens) (Q8TBX8 whole entry): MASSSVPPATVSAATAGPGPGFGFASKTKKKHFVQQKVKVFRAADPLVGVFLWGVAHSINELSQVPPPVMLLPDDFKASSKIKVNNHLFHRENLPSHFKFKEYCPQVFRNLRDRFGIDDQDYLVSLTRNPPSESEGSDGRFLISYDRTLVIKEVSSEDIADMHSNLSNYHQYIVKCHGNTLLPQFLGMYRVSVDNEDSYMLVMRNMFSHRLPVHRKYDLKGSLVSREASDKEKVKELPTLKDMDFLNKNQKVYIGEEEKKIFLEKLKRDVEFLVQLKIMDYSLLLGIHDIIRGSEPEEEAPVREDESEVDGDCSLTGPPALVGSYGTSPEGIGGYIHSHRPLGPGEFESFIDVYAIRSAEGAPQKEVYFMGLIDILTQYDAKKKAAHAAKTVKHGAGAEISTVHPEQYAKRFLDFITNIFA

[23] = molecular target: Interferon-induced, double-stranded RNA-activated protein kinase (Homo sapiens) (UniProt P19525); settings: Compound concentration 1000.0 nM
[24] = molecular target: Receptor-interacting serine/threonine-protein kinase 4 (Homo sapiens) (UniProt P57078); settings: Compound concentration 1000.0 nM
[25] = molecular target: Dual serine/threonine and tyrosine protein kinase (Homo sapiens) (UniProt Q6XUX3); settings: Compound concentration 1000.0 nM
[26] = molecular target: Ribosomal protein S6 kinase alpha-5 (Homo sapiens) (UniProt O75582); settings: Compound concentration 1000.0 nM
[27] = molecular target: STE20/SPS1-related proline-alanine-rich protein kinase (Homo sapiens) (UniProt Q9UEW8); settings: Compound concentration 1000.0 nM
[28] = molecular target: TGF-beta receptor type-1 (Homo sapiens) (UniProt P36897); settings: Compound concentration 1000.0 nM
[29] = molecular target: Non-receptor tyrosine-protein kinase TNK1 (Homo sapiens) (UniProt Q13470); settings: Compound concentration 1000.0 nM
[30] = molecular target: Testis-specific serine/threonine-protein kinase 3 (Homo sapiens) (UniProt Q96PN8); settings: Compound concentration 1000.0 nM
[31] = molecular target: Serine/threonine-protein kinase WNK1 (Homo sapiens) (UniProt Q9H4A3); settings: Compound concentration 1000.0 nM
[32] = molecular target: Serine/threonine-protein kinase WNK3 (Homo sapiens) (UniProt Q9BYP7); settings: Compound concentration 1000.0 nM
[33] = molecular target: 5-hydroxytryptamine receptor 2A (Homo sapiens) (UniProt P28223); settings: Compound concentration 10.0 uM
[34] = molecular target: 5-hydroxytryptamine receptor 2B (Homo sapiens) (UniProt P41595); settings: Compound concentration 10.0 uM
[35] = molecular target: Mu-type opioid receptor (Homo sapiens) (UniProt P35372); settings: Compound concentration 10.0 uM
[36] = molecular target: T1, Muscarinic acetylcholine receptor M5 (Homo sapiens) (UniProt P08912); settings: Compound concentration 10.0 uM
T1 sequence (whole entry): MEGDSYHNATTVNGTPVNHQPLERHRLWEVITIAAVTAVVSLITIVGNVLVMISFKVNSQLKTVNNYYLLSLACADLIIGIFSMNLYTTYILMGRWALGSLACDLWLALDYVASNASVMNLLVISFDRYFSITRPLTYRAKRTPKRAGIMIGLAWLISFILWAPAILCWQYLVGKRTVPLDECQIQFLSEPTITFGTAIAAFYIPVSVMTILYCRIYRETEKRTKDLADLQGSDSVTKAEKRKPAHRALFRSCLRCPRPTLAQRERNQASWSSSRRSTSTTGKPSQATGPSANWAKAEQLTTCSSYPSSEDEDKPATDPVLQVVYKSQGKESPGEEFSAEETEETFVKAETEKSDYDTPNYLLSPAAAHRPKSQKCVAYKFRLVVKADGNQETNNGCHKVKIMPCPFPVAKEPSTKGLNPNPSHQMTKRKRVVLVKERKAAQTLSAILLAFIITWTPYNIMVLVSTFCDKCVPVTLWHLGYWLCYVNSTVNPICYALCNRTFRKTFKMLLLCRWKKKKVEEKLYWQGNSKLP

[37] = molecular target: Beta-3 adrenergic receptor (Homo sapiens) (UniProt P13945); settings: Compound concentration 10.0 uM

SMILES	residual activity [1] [%]	residual activity [2] [%]	residual activity [3] [%]	residual activity [4] [%]	residual activity [5] [%]	residual activity [6] [%]	residual activity [7] [%]	residual activity [8] [%]	residual activity [9] [%]	residual activity [10] [%]	residual activity [11] [%]	residual activity [12] [%]	residual activity [13] [%]	residual activity [14] [%]	residual activity [15] [%]	residual activity [16] [%]	residual activity [17] [%]	residual activity [18] [%]	residual activity [19] [%]	residual activity [20] [%]	further results
O=C(NCc1ncc(C(F)(F)F)cc1Cl)c1ccc2c(c1)C1(CCS(=O)(=O)CC1)[C@@H](C1CC1)N2S(=O)(=O)c1ccc(F)cc1 [BAY-786]	73	97	100	83	100	93	73	96	100	93	58	84	100	100	85	85	93	68	84	89	residual activity [21]: 100%; residual activity [22]: 100%; residual activity [23]: 97%; residual activity [24]: 72%; residual activity [25]: 78%; residual activity [26]: 100%; residual activity [27]: 77%; residual activity [28]: 84%; residual activity [29]: 88%; residual activity [30]: 97%; residual activity [31]: 79%; residual activity [32]: 70%; inhibition [33]: 5.01%; inhibition [34]: -2.32%; inhibition [35]: 13.1%; inhibition [36]: -1.92%; inhibition [37]: -0.77%
O=C(NCc1ncc(C(F)(F)F)cc1Cl)c1ccc2c(c1)C1(CCS(=O)(=O)CC1)[C@H](C1CC1)N2S(=O)(=O)c1ccc(F)cc1 [BAY-784]	98	39	100	100	90	85	100	97	94	100	76	90	92	100	86	87	79	63	100	91	residual activity [21]: 85%; residual activity [22]: 100%; residual activity [23]: 100%; residual activity [24]: 93%; residual activity [25]: 76%; residual activity [26]: 95%; residual activity [27]: 84%; residual activity [28]: 100%; residual activity [29]: 88%; residual activity [30]: 87%; residual activity [31]: 90%; residual activity [32]: 86%; inhibition [33]: -4.7%; inhibition [34]: -2.53%; inhibition [35]: 29.1%; inhibition [36]: -6.43%; inhibition [37]: -2.87%

From ChEMBL document CHEMBL4507266, “Data for DCP probe BAY-784” (2021)
